In US9090600B2, “Fungicidal 4-substituted-3-{phenyl[(heterocyclylmethoxy)imino]methyl}-1,2,4-oxadizol-5(4H)-one derivatives” (BAYER INTELLECTUAL PROPERTY GMBH, priority 2011, dated 2015):
Like-named read-outs stand apart in the source and are kept apart here. Marks after values point to notes of the source that are not given here.

Legend:
Phytophthora infestans [1] = assay type: in vivo; conditions: tomato, preventive spray, 100 ppm of active ingredient, evaluated 7 days after inoculation
[2] = pH 2.7
Plasmopara viticola = assay: Plasmopara test (grapevines)/preventive; assay type: in vivo; conditions: preventive spray, 10 ppm of active ingredient, evaluated 6 days after inoculation
Description: Solvent: 24.5 parts by weight of acetone • 24.5 parts by weight of dimethylacetamide
Emulsifier: 1 part by weight of alkylaryl polyglycol ether
To produce a suitable preparation of active compound, 1 part by weight of active compound is mixed with the stated amounts of solvent and emulsifier, and the concentrate is diluted with water to the desired concentration.
To test for preventive activity, young plants are sprayed with the preparation of active compound at the stated rate of application. After the spray coating has dried on, the plants are inoculated with an aqueous spore suspension of Plasmopara viticola and then remain for 1 day in an incubation cabinet at approximately 20° C. and a relative atmospheric humidity of 100%. The plant is subsequently placed for 4 days in a greenhouse at approximately 21° C. and a relative atmospheric humidity of approximately 90%. The plants are then misted and placed for 1 day in an incubation cabinet.
The test is evaluated 6 days after the inoculation. 0% means an efficacy which corresponds to that of the untreated control, while an efficacy of 100% means that no disease is observed.

Phytophthora infestans [3] = assay type: in vivo; conditions: tomato plants, spray, 500 ppm, grading 5 days after contamination
Puccinia recondita = assay: In vivo test on Puccinia recondita (brown rust); conditions: wheat plants, spray, 500 ppm, grading 10 days after contamination
Description: The active ingredients tested are prepared by homogenization in a mixture of acetone/tween/DMSO, then diluted with water to obtain the desired active material.
Wheat plants (Scipion variety) sown on 50/50 peat soil-pozzolana substrate in starter cups and grown at 22° C. (12 h)/20° C. (12 h), are treated at the 1-leaf stage (10 cm tall) by spraying with the aqueous suspension described above.
Plants, used as controls, are treated with an aqueous solution not containing the active material. After 24 hours, the plants are contaminated by spraying the leaves with an aqueous suspension of Puccinia recondite spores (100.000 spores per ml). The spores are collected from a 10-day-old contaminated wheat and are suspended in water containing 2.5 ml/l of tween 80 10%. The contaminated wheat plants are incubated for 24 hours at 20° C. and at 100% relative humidity, and then for 10 days at 20° C. and at 70% relative humidity. Grading is carried out 10 days after the contamination, in comparison with the control plants.
Under these conditions, good (at least 70%) or total protection is observed at a dose of 500 ppm with the following compounds: […]

SMILES: Cn1c(/C(=N\OCc2cccc(NC(=O)OCCC3CCCCC3)n2)c2ccccc2)noc1=O [Example 5]
- Eff. % (Phytophthora infestans [1]): 95%
- LogP [2]: 5.27 [a]
- Eff. % (Plasmopara viticola): 88%

SMILES: Cn1c(/C(=N\OCc2cccc(NC(=O)OCCc3ccccc3)n2)c2ccccc2)noc1=O [Example 7]
- Eff. % (Phytophthora infestans [1]): 95%
- LogP [2]: 4.15 [a]
- Eff. % (Plasmopara viticola): 96%

SMILES: CCCCCCC(=O)Nc1cccc(CO/N=C(/c2ccccc2)c2noc(=O)n2C)n1 [Example 8]
- Eff. % (Phytophthora infestans [3]): 100%
- Eff. % (Phytophthora infestans [1]): 98%
- LogP [2]: 4.3 [a]
- Eff. % (Plasmopara viticola): 99%

SMILES: CCCCCCC(=O)Nc1nc(CO/N=C(/c2ccccc2)c2noc(=O)n2C)cs1 [Example 9]
- Eff. % (Phytophthora infestans [1]): 95%
- LogP [2]: 4.13 [a]
- Eff. % (Plasmopara viticola): 94%

SMILES: Cn1c(/C(=N\OCc2csc(NC(=O)C3COc4ccccc4O3)n2)c2ccccc2)noc1=O (stereo not drawn) [Example 10]
- Eff. % (Phytophthora infestans [1]): 95%
- LogP [2]: 3.62 [a]
- Eff. % (Plasmopara viticola): 96%

SMILES: Cn1c(/C(=N\OCc2csc(NC(=O)C3CCc4ccccc4O3)n2)c2ccccc2)noc1=O (stereo not drawn) [Example 11]
- Eff. % (Phytophthora infestans [1]): 100%
- LogP [2]: 3.94 [a]
- Eff. % (Plasmopara viticola): 98%

SMILES: CCCCCOC(=O)Nc1nc(CO/N=C(/c2ccccc2)c2noc(=O)n2C)cs1 [Example 12]
- Eff. % (Phytophthora infestans [1]): 95%
- LogP [2]: 4.11 [a]
- Eff. % (Plasmopara viticola): 94%

SMILES: CCCCC(=O)Nc1nc(CO/N=C(/c2ccccc2)c2noc(=O)n2C)cs1 [Example 13]
- Eff. % (Phytophthora infestans [1]): 95%
- LogP [2]: 3.37 [a]
- Eff. % (Plasmopara viticola): 93%

SMILES: Cn1c(/C(=N\OCc2cccc(NC(=O)OCC3CCCC3)n2)c2ccccc2)noc1=O [Example 16]
- Eff. % (Phytophthora infestans [1]): 98%
- LogP [2]: 4.53 [a]
- Eff. % (Plasmopara viticola): 94%

SMILES: Cn1c(/C(=N\OCc2cccc(NC(=O)c3cccc(F)c3)n2)c2ccccc2)noc1=O [Example 17]
- Eff. % (Phytophthora infestans [1]): 98%
- LogP [2]: 3.69 [a]
- Eff. % (Plasmopara viticola): 94%

SMILES: Cn1c(/C(=N\OCc2csc(NC(=O)c3cccc(F)c3)n2)c2ccccc2)noc1=O [Example 20]
- Eff. % (Phytophthora infestans [1]): 95%
- LogP [2]: 3.6 [a]
- Eff. % (Plasmopara viticola): 94%

SMILES: CCCCCOC(=O)Nc1cccc(CO/N=C(\c2ccccc2)c2noc(=O)n2C)n1 [Example 26]
- Eff. % (Phytophthora infestans [1]): 93%
- LogP [2]: 4.24 [a]

SMILES: C#CCCOC(=O)Nc1cccc(CO/N=C(/c2ccccc2)c2noc(=O)n2C(F)F)n1 [Example 58]
- Eff. % (Phytophthora infestans [1]): 80%
- LogP [2]: 3.64 [a]

SMILES: Cn1c(/C(=N\OCc2cccc(NC(=O)CCCl)n2)c2ccccc2)noc1=O [Example 63]
- Eff. % (Phytophthora infestans [3]): 100%
- LogP [2]: 3.02 [a]
- Eff. % (Puccinia recondita): 75%

SMILES: C#CCCOC(=O)Nc1cccc(CO/N=C(/c2ccccc2)c2noc(=O)n2CC#N)n1 [Example 70]
- Eff. % (Phytophthora infestans [1]): 84%
- LogP [2]: 3.31 [a]

SMILES: Cn1c(/C(=N\OCc2cccc(NC(=O)CCCCBr)n2)c2ccccc2)noc1=O [Example 73]
- Eff. % (Phytophthora infestans [3]): 100%
- LogP [2]: 3.59 [a]
- Eff. % (Puccinia recondita): 81%

SMILES: Cn1c(/C(=N\OCc2cccc(NCCc3ccccc3)n2)c2ccccc2)noc1=O [Example 74]
- Eff. % (Phytophthora infestans [1]): 95%
- LogP [2]: 2.78 [a]
- Eff. % (Plasmopara viticola): 94%

SMILES: C#CCCOC(=O)Nc1cccc(CO/N=C(/c2ccccc2)c2noc(=O)n2CC#C)n1 [Example 86]
- Eff. % (Phytophthora infestans [1]): 90%
- LogP [2]: 3.46 [a]

SMILES: CCn1c(/C(=N\OCc2cccc(NC(=O)Cc3ccc(OC)cc3)n2)c2ccccc2)noc1=O [Example 88]
- Eff. % (Phytophthora infestans [3]): 98%
- LogP [2]: 3.7 [a]
- Eff. % (Puccinia recondita): 78%

SMILES: C#CCCOC(=O)Nc1cccc(CO/N=C(/c2ccccc2)c2noc(=O)n2CC)n1 [Example 104]
- Eff. % (Phytophthora infestans [1]): 93%
- LogP [2]: 3.51 [a]
- Eff. % (Plasmopara viticola): 100%

SMILES: COc1cccc(/C(=N/OCc2cccc(NC(=O)OC(C)(C)C)n2)c2noc(=O)n2C)c1 [Example 131]
- Eff. % (Phytophthora infestans [3]): 100%
- LogP [2]: 3.99 [a]
- Eff. % (Puccinia recondita): 81%

SMILES: Cn1c(/C(=N\OCc2cccc(NC/C=N/OCc3ccccc3)n2)c2ccccc2)noc1=O [Example 136]
- Eff. % (Phytophthora infestans [1]): 95%
- LogP [2]: 3.35 [a]
- Eff. % (Plasmopara viticola): 75%

SMILES: Cn1c(/C(=N\OCc2cccc(NC(=O)C(C)(C)C)n2)c2ccccc2)noc1=O [Example 148]
- Eff. % (Phytophthora infestans [3]): 100%
- Eff. % (Phytophthora infestans [1]): 97%
- LogP [2]: 3.48 [a]
- Eff. % (Plasmopara viticola): 100%

SMILES: Cn1c(/C(=N\OCc2csc(NC(=O)C(C)(C)C)n2)c2ccccc2)noc1=O [Example 154]
- Eff. % (Phytophthora infestans [1]): 95%
- LogP [2]: 3.42 [a]

SMILES: CCCCCCNc1cccc(CO/N=C(/c2ccccc2)c2noc(=O)n2C)n1 [Example 163]
- Eff. % (Phytophthora infestans [1]): 95%
- LogP [2]: 2.64 [a]
- Eff. % (Plasmopara viticola): 96%

SMILES: COc1ccc(/C(=N/OCc2cccc(NC(=O)C(F)(F)F)n2)c2noc(=O)n2C)cc1 [Example 191]
- Eff. % (Phytophthora infestans [3]): 95%
- LogP [2]: 3.37 [a]
- Eff. % (Puccinia recondita): 89%

SMILES: CCCCCC(=O)Nc1nc(CO/N=C(/c2ccccc2)c2noc(=O)n2C)cs1 [Example 198]
- Eff. % (Phytophthora infestans [1]): 95%
- LogP [2]: 3.76 [a]
- Eff. % (Plasmopara viticola): 100%

SMILES: CCCCOC(=O)Nc1cccc(CO/N=C(/c2cccc(C)c2)c2noc(=O)n2C)n1 [Example 215]
- Eff. % (Phytophthora infestans [3]): 98%
- LogP [2]: 4.36 [a]
- Eff. % (Puccinia recondita): 81%

SMILES: CCC(Oc1ccccc1)C(=O)Nc1nc(CO/N=C(/c2ccccc2)c2noc(=O)n2C)cs1 (stereo not drawn) [Example 322]
- Eff. % (Phytophthora infestans [1]): 75%
- LogP [2]: 3.99 [a]

SMILES: Cn1c(/C(=N\OCc2cccc(NC(=O)CCc3ccccc3)n2)c2ccc(F)cc2)noc1=O [Example 324]
- Eff. % (Phytophthora infestans [3]): 94%
- LogP [2]: 3.87 [a]
- Eff. % (Puccinia recondita): 75%

SMILES: CC(C)CC(=O)Nc1cccc(CO/N=C(/c2ccccc2)c2noc(=O)n2C)n1 [Example 340]
- Eff. % (Phytophthora infestans [3]): 100%
- LogP [2]: 3.44 [a]
- Eff. % (Plasmopara viticola): 79%

SMILES: C#CCCOC(=O)Nc1cccc(CO/N=C(/c2cccc(C)c2)c2noc(=O)n2C)n1 [Example 343]
- Eff. % (Phytophthora infestans [3]): 100%
- LogP [2]: 3.59 [a]
- Eff. % (Plasmopara viticola): 95%

SMILES: Cc1cccc(C(=O)Nc2cccc(CO/N=C(/c3ccccc3)c3noc(=O)n3C)n2)c1 [Example 344]
- Eff. % (Phytophthora infestans [3]): 100%
- LogP [2]: 3.87 [a]
- Eff. % (Plasmopara viticola): 93%

SMILES: Cn1c(/C(=N\OCc2cccc(NC(=O)CCc3ccccc3)n2)c2ccccc2)noc1=O [Example 347]
- Eff. % (Phytophthora infestans [3]): 100%
- Eff. % (Phytophthora infestans [1]): 92%
- LogP [2]: 3.78 [a]
- Eff. % (Plasmopara viticola): 100%

SMILES: Cn1c(/C(=N\OCc2cccc(NC(=O)OC3CCCCC3)n2)c2ccc(F)cc2)noc1=O [Example 351]
- Eff. % (Phytophthora infestans [3]): 93%
- LogP [2]: 4.54 [a]
- Eff. % (Puccinia recondita): 75%

SMILES: Cn1c(/C(=N\OCc2cccc(NC(=O)c3ccc(Cl)c(Cl)c3)n2)c2ccccc2)noc1=O [Example 352]
- Eff. % (Phytophthora infestans [3]): 100%
- LogP [2]: 4.54 [a]
- Eff. % (Plasmopara viticola): 79%

SMILES: CCCCCC(=O)Nc1cccc(CO/N=C(/c2cccc(C)c2)c2noc(=O)n2C)n1 [Example 355]
- Eff. % (Phytophthora infestans [3]): 100%
- LogP [2]: 4.24 [a]
- Eff. % (Plasmopara viticola): 75%

SMILES: Cn1c(/C(=N\OCc2cccc(NC(=O)CC3CCCC3)n2)c2ccccc2)noc1=O [Example 365]
- Eff. % (Phytophthora infestans [3]): 100%
- LogP [2]: 3.92 [a]
- Eff. % (Plasmopara viticola): 98%

SMILES: CCCCCC(=O)Nc1cccc(CO/N=C(/c2cccc(F)c2)c2noc(=O)n2C)n1 [Example 376]
- Eff. % (Phytophthora infestans [3]): 100%
- LogP [2]: 3.99 [a]
- Eff. % (Plasmopara viticola): 93%

SMILES: Cn1c(/C(=N\OCc2csc(NC(=O)Cc3ccccc3)n2)c2ccccc2)noc1=O [Example 378]
- Eff. % (Phytophthora infestans [3]): 100%
- LogP [2]: 3.37 [a]
- Eff. % (Plasmopara viticola): 95%

SMILES: Cn1c(/C(=N\OCc2cccc(NC(=O)c3cccc(Br)c3)n2)c2ccccc2)noc1=O [Example 380]
- Eff. % (Phytophthora infestans [3]): 93%
- LogP [2]: 4.16 [a]
- Eff. % (Plasmopara viticola): 95%

SMILES: Cn1c(/C(=N\OCc2cccc(NC(=O)CCC3CCC3)n2)c2ccccc2)noc1=O [Example 389]
- Eff. % (Phytophthora infestans [3]): 99%
- LogP [2]: 4.02 [a]
- Eff. % (Plasmopara viticola): 100%

SMILES: Cc1ccc(C(=O)Nc2cccc(CO/N=C(/c3ccccc3)c3noc(=O)n3C)n2)cc1C [Example 401]
- Eff. % (Phytophthora infestans [3]): 99%
- LogP [2]: 4.16 [a]
- Eff. % (Plasmopara viticola): 90%

SMILES: Cn1c(/C(=N\OCc2cccc(NC(=O)CCCCCl)n2)c2ccccc2)noc1=O [Example 404]
- Eff. % (Phytophthora infestans [3]): 98%
- LogP [2]: 3.44 [a]
- Eff. % (Plasmopara viticola): 87%

SMILES: C#CCCOC(=O)Nc1cccc(CO/N=C(/c2ccccc2)c2noc(=O)n2CC=C)n1 [Example 405]
- Eff. % (Phytophthora infestans [1]): 95%
- LogP [2]: 3.61 [a]
- Eff. % (Plasmopara viticola): 85%
